Biological target: T1, PRMT6 (Homo sapiens, UniProt Q96LA8)
T1 construct: Flag-PRMT6-His; made in house; host or cells: HEK 293F cells (BacMam virus)
Assay: PRMT6 Biochemical Assay (3H-SAM Flashplate, peptide substrate)
Conditions: 30 min preincubation, room temperature
Source text: S-adenosylmethionine (SAM), S-adenosylhomocysteine (SAH), bicine, Tween20, dimethylsulfoxide (DMSO), bovine skin gelatin (BSG), sodium butyrate and Tris(2-carboxyethyl)phosphine hydrochloride solution (TCEP) were purchased from Sigma-Aldrich at the highest level of purity possible. ^3H-SAM was purchase from American Radiolabeled Chemicals with a specific activity of 80 Ci/mmol. 384-well streptavidin Flashplates were purchased from PerkinElmer.
Peptide representative of human histone H4 residues 36-50 was synthesized with an N-terminal linker-affinity tag motif and a C-terminal amide cap by 21st Century Biochemicals. The peptide was purified by high-performance liquid chromatography (HPLC) to greater than 95% purity and confirmed by liquid chromatography mass spectrometry (LC-MS). The sequence was Biot-Ahx-[…]-amide and contained a monomethylated lysine at position 44 (SEQ ID NO.:5).
Full-length human PRMT6 (NM_018137.2) transcript clone was amplified from an HEK 293 cDNA library, incorporating a flanking 5′ sequence encoding a FLAG tag ([…]) (SEQ ID NO.:6) fused directly to Ser 2 of PRMT6 and a 3′ sequence encoding a hexa His sequence (HHHHHH) fused directly to Asp 375. The amplified gene was subcloned into pFastBacMam (Viva Biotech).
Recombinant baculovirus were generated according to Bac-to-Bac kit instructions (Life Technologies). […] Infections were carried out at 37° C. for 48 hours, harvested by centrifugation, and stored at −80° C. for purification.
Column was washed with 20 mM imidazole in the same buffer and Flag-PRMT6-His was eluted with 150 mM imidazole. Pooled fractions were dialysed against buffer Ni-A and further purified by anti-flag M2 affinity chromatography. Flag-PRMT6-His was eluted with 200 ug/ml FLAG peptide in the same buffer. Pooled fractions were dialysed in 20 mM Tris, 150 mM NaCl, 10% glycerol and 5 mM β-mercaptoethanol, pH 7.8. The purity of recovered protein was 95%.
General Procedure for PRMT6 Enzyme Assays on Peptide Substrates.
The assays were all performed in a buffer consisting of 20 mM Bicine (pH=7.6), 1 mM TCEP, 0.005% BSG, and 0.002% Tween 20, prepared on the day of use. Compounds in 100% DMSO (1 ul) were spotted into a polypropylene 384-well V-bottom plates (Greiner) using a Platemate Plus outfitted with a 384-channel head (Thermo Scientific). DMSO (1 ul) was added to Columns 11, 12, 23, 24, rows A-H for the maximum signal control and 1 ul of SAH, a known product and inhibitor of PRMT6, was added to columns 11, 12, 23, 24, rows I-P for the minimum signal control. A cocktail (40 ul) containing the PRMT6 enzyme was added by Multidrop Combi (Thermo-Fisher). The compounds were allowed to incubate with PRMT6 for 30 min at room temperature, then a cocktail (10 ul) containing SAM and peptide was added to initiate the reaction (final volume=51 ul). The final concentrations of the components were as follows: PRMT6 was 1 nM, ^3H-SAM was 200 nM, non-radiolabeled SAM was 250 nM, peptide was 75 nM, SAH in the minimum signal control wells was 1 mM, and the DMSO concentration was 2%. The assays were stopped by the addition of non-radiolabeled SAM (10 ul) to a final concentration of 400 uM, which dilutes the ^3H-SAM to a level where its incorporation into the peptide substrate is no longer detectable. 50 ul of the reaction in the 384-well polypropylene plate was then transferred to a 384-well Flashplate and the biotinylated peptides were allowed to bind to the streptavidin surface for at least 1 hour before being washed once with 0.1% Tween20 in a Biotek ELx405 plate washer. The plates were then read in a PerkinElmer TopCount plate reader to measure the quantity of ^3H-labeled peptide bound to the Flashplate surface, measured as disintegrations per minute (dpm) or alternatively, referred to as counts per minute (cpm).
Where dpm=disintegrations per minute, cmpd=signal in assay well, and min and max are the respective minimum and maximum signal controls. […]

T1 sequence (Q96LA8 with tags, fused parts or gaps): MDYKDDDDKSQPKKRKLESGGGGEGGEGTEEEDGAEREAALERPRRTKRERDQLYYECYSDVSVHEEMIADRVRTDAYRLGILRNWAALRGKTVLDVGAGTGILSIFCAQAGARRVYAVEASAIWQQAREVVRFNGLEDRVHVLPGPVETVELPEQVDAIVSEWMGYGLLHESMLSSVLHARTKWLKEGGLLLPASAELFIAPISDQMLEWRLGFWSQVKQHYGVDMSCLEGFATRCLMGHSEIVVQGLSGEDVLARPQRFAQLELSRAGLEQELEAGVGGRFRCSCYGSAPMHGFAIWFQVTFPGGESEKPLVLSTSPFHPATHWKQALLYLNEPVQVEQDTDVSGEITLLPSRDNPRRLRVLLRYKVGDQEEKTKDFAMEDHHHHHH

`CN(CCN)Cc1c[nH]nc1-c1ccco1` [Compound 6] and `CN(CCN)Cc1c[nH]nc1-c1ccoc1` [Compound 7] fall in the same range of IC50: 0.101 to 1 µM for the first, 0.101 to 1 µM for the second.

`CN(CCN)Cc1c[nH]nc1-c1cnc2[nH]ccc2c1` [Compound 13] and `CN(CCN)Cc1c[nH]nc1-c1ccc2[nH]ncc2c1` [Compound 27, N^1-((3-(1H-indazol-5-yl)-1H-pyrazol-4-yl)methyl)-N^1-methylethane-1,2-diamine] cannot be ordered by IC50: ≤ 0.1 µM for the first, ≤ 0.1 µM for the second.

`CN(CCN)Cc1c[nH]nc1-c1cnc(C2CC2)nc1` [Compound 28] and `COc1ncc(-c2n[nH]cc2CN(C)CCN)cn1` [Compound 11] fall in the same range of IC50: 0.101 to 1 µM for the first, 0.101 to 1 µM for the second.

`CN(CCN)Cc1c[nH]nc1-c1ccc2nccn2c1` [Compound 21, N^1-((3-(imidazo[1,2-a]pyridin-6-yl)-1H-pyrazol-4-yl)methyl)-N^1-methylethane-1,2-diamine] and `CN(CCN)Cc1c[nH]nc1-c1ccc2ncnn2c1` [Compound 20] cannot be ordered by IC50: ≤ 0.1 µM for the first, ≤ 0.1 µM for the second.

`Cc1n[nH]c(C)c1-c1n[nH]cc1CN(C)CCN` [Compound 25] and `Cc1noc(C)c1-c1n[nH]cc1CN(C)CCN` [Compound 10] cannot be ordered by IC50: ≥ 10 µM for the first, ≥ 10 µM for the second.

`CN(CCN)Cc1c[nH]nc1-c1cnn(-c2ccccc2)c1` [Compound 17] and `CN(CCN)Cc1c[nH]nc1-c1cnn(Cc2ccccc2)c1` [Compound 24, N^1-((1′-benzyl-3,4′-bi(1H-pyrazol)-4-yl)methyl)-N^1-methylethane-1,2-diamine] cannot be ordered by IC50: ≤ 0.1 µM for the first, ≤ 0.1 µM for the second.

`CN(CCN)Cc1c[nH]nc1-c1ccc2cnn(C)c2c1` [Compound 19, N^1-methyl-N^1-((3-(1-methyl-1H-indazol-6-yl)-1H-pyrazol-4-yl)methyl)ethane-1,2-diamine] and `CN(CCN)Cc1c[nH]nc1-c1ccc2scnc2c1` [Compound 9] cannot be ordered by IC50: ≤ 0.1 µM for the first, ≤ 0.1 µM for the second.

First: CN(CCN)Cc1c[nH]nc1-c1ccnn1C [Compound 15]
Second: CN(CCN)Cc1c[nH]nc1-c1cnn(C)c1 [Compound 8]
The IC50 of the first is higher: 1.01 to 3 µM for the first, ≤ 0.1 µM for the second.

`CCn1cc(-c2n[nH]cc2CN(C)CCN)cn1` [Compound 16] and `CC(C)Cn1cc(-c2n[nH]cc2CN(C)CCN)cn1` [Compound 23, N^1-((2′-isobutyl-3,4′-bi(1H-pyrazol)-4-yl)methyl)-N^1-methylethane-1,2-diamine] cannot be ordered by IC50: ≤ 0.1 µM for the first, ≤ 0.1 µM for the second.

Compared with `CN(CCN)Cc1c[nH]nc1-c1cccc2[nH]ncc12` [Compound 30], `CN(CCN)Cc1c[nH]nc1-c1cn[nH]c1` [Compound 12] is higher in IC50: ≤ 0.1 µM for the first, 0.101 to 1 µM for the second.

Compared with `CN(CCN)Cc1c[nH]nc1-c1ccsc1` [Compound 3], `CN(CCN)Cc1c[nH]nc1-c1cccs1` [Compound 5] is higher in IC50: ≤ 0.1 µM for the first, 0.101 to 1 µM for the second. The first is the more potent here.

`CC(C)n1cc(-c2n[nH]cc2CN(C)CCN)cn1` [Compound 22] and `CN(CCN)Cc1c[nH]nc1-c1cnn(CCO)c1` [Compound 18] cannot be ordered by IC50: ≤ 0.1 µM for the first, ≤ 0.1 µM for the second.

`CN(CCN)Cc1c[nH]nc1-c1ccc[nH]1` [Compound 29] and `CN(CCN)Cc1c[nH]nc1-c1cc[nH]n1` [Compound 14] fall in the same range of IC50: 1.01 to 3 µM for the first, 1.01 to 3 µM for the second.

Compound `CN(CCN)Cc1c[nH]nc1-c1cncnc1` [Compound 4] has an IC50 of 0.101 to 1 µM.

Reference: patent US9630961B2, “Arginine methyltransferase inhibitors and uses thereof” (Epizyme, Inc., priority 2013, dated 2017)
